Consider two compounds from PubChem BioAssay (NCI).

Some test systems named below: A498 renal; HOP-92 NSCLC; SR leukemia; MOLT-4 leukemia; HL-60(TB) leukemia; MDA-MB-435; HCT-15 colon; SK-MEL-28 melanoma; BT-549 breast; SF-268 CNS.
Common to all, as to assay: DTP human tumour cell line panel, 48 h

Each structure is given as a SMILES string.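 Dose response: 5 concentrations. Exposure: 48 h. Format: 96-well plates. Endpoint: linear interpolation; highest concentration if not reached. Here, GI50 denotes the concentration required for 50% inhibition of growth. TGI is the concentration that stops growth completely.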

Usually GI50 stands for the concentration giving 50% growth inhibition. The term TGI denotes the concentration at which net growth stops.

On to `CC(C)(C)[Si](C)(C)OC1[C@@H](O[Si](C)(C)C(C)(C)C)[C@@H](CNC(=O)NC(=O)CCl)O[C@H]1n1cnc2c(NC(=O)Nc3ccccc3)ncnc21` (stereo not given in full), for which the GI50 was 902 nM in the assay on A498 renal; 211 nM with HOP-92 NSCLC; 117 nM in the assay on SR leukemia; 339 nM in the assay on MOLT-4 leukemia; 166 nM with HL-60(TB) leukemia; 835 nM with MDA-MB-435. For the same compound, the GI50 is 1770 nM in the assay on HCT-15 colon, 916 nM in the assay with SK-MEL-28 melanoma, 962 nM in the assay with BT-549 breast and 665 nM in the assay on SF-268 CNS. Further, the TGI with A498 renal came out at 2110 nM; in the assay on HOP-92 NSCLC, 900 nM; in the assay with SR leukemia it was 446 nM; in the assay on MOLT-4 leukemia, 913 nM; in the assay with HL-60(TB) leukemia, 488 nM; with MDA-MB-435, 1750 nM. The TGI in the assay with HCT-15 colon was 6560 nM; in the assay with SK-MEL-28 melanoma it was 1690 nM; in the assay on BT-549 breast it was 1790 nM; in the assay with SF-268 CNS, 1440 nM.

As for `COc1cccc(NC(=O)c2sc3nc4c(cc3c2N)C(=O)CCC4)c1`, the GI50 is 52.1 nM in the assay on A498 renal; 48.2 nM with HOP-92 NSCLC; 133 nM with SR leukemia; 553 nM in the assay with MOLT-4 leukemia; 144 nM in the assay with HL-60(TB) leukemia; 22.1 nM in the assay with MDA-MB-435. For the same compound, the GI50 in the assay with HCT-15 colon is 68.6 nM; with SK-MEL-28 melanoma, 810 nM; with BT-549 breast, 282 nM; with SF-268 CNS it was 725 nM. Further, the TGI in the assay on A498 renal is 830 nM; in the assay on HOP-92 NSCLC it was 26800 nM; in the assay on SR leukemia, over 100000 nM; in the assay on MOLT-4 leukemia, over 100000 nM; in the assay with HL-60(TB) leukemia, over 100000 nM; in the assay on MDA-MB-435 it was 54.8 nM. In addition, the TGI with HCT-15 colon is over 100000 nM; in the assay with SK-MEL-28 melanoma, over 100000 nM; in the assay on BT-549 breast it was over 90500 nM; in the assay on SF-268 CNS, over 100000 nM.
